This test concerns MDA MB 231 cells. In words: Antiproliferation assay in MDA MB 231 cells (Cell Titer Glo). To be noted: Homo sapiens, MDA-MB-231, 216 h, MDAMB231 cell line, 9 day treatment, racemic compounds (Table 2). Type of test: cell-based. Here is the method: Antiproliferation Assay in MDA MB 231 Cells MDA MB 231 cells were seeded in 96 well plate at a seeding density of 250 cells/well. The cells were allowed to settle overnight under standard incubator conditions (37° C., 5% CO2). Next day treatment with increasing dose of test compounds and reference compounds were done to the respective wells and the cells were further incubated under standard cell culture conditions for another 4 days. On the 5th day, media was replenished with fresh treatment and cells were incubated for a total of 9 day treatment period. On the day of termination, appropriate volume of Cell Titer Glo reagent was added to the treatment (and control) wells and the plates were kept on a plate shaker @300 RPM for 15 min. Luminiscence reading (RLU) was […] RLU is directly proportional to ATP content and is directly related to number of metabolically active cells in the respective well. Calculation: a. Blank Correction: RLU of the Wells Containing No Cells is Considered as Blank and Subtracted from all RLU of the Treated and Control Wells [formula]
For the compound `CCC(=O)N1N=C(c2c(C)c3ccsc3[nH]c2=O)CC1c1ccc(C)s1` (stereo not shown) [Example 41, 5-(5-(5-methylthiophen-2-yl)-1-propionyl-4,5-dihydro-1H-pyrazol-3-yl)-4-methylthieno[2,3-b]pyridin-6(7H)-one], the inhibition (commonly how much of the control response was suppressed) at 10 µM is at least 50%.
The compound `CCC(=O)N1N=C(c2c(C)c3ccsc3[nH]c2=O)CC1c1ccc(C(F)(F)F)cc1` (stereo not shown) [Example 42, 4-methyl-5-(1-propionyl-5-(4-(trifluoromethyl)phenyl)-4,5-dihydro-1H-pyrazol-3-yl)thieno[2,3-b]pyridin-6(7H)-one] registered an inhibition at 10 µM of at least 50%.
In the case of `CCC(=O)N1N=C(c2c(C)c3ccsc3[nH]c2=O)CC1c1ccc(C(F)F)cc1` (stereo not shown) [Example 43, 5-(5-(4-(difluoromethyl)phenyl)-1-propionyl-4,5-dihydro-1H-pyrazol-3-yl)-4-methylthieno[2,3-b]pyridin-6(7H)-one] it was at least 50%.
Regarding `CCC(=O)N1N=C(c2c(C)c3ccsc3[nH]c2=O)CC1c1ccc(CC)cc1` (stereo not shown) [Example 44, 5-(5-(4-ethylphenyl)-1-propionyl-4,5-dihydro-1H-pyrazol-3-yl)-4-methylthieno[2,3-b]pyridin-6(7H)-one], the inhibition at 10 µM is at least 50%.
With `CCC(=O)N1N=C(c2c(C)c3ccsc3[nH]c2=O)CC1c1ccc(N2CCCC2)cc1` (stereo not shown) [Example 46, 4-methyl-5-(1-propionyl-5-(4-(pyrrolidin-1-yl)phenyl)-4,5-dihydro-1H-pyrazol-3-yl)thieno[2,3-b]pyridin-6(7H)-one] the figure was at least 50%; with `CCC(=O)N1N=C(c2c(C)c3ccsc3[nH]c2=O)CC1c1ccc(C2CC2)cc1` (stereo not shown) [Example 47, 5-(5-(4-cyclopropylphenyl)-1-propionyl-4,5-dihydro-1H-pyrazol-3-yl)-4-methylthieno[2,3-b]pyridin-6(7H)-one], under 50%; with `CCC(=O)N1N=C(c2c(C)c3ccsc3[nH]c2=O)CC1c1csc(C)n1` (stereo not shown) [Example 48, 4-methyl-5-(5-(2-methylthiazol-4-yl)-1-propionyl-4,5-dihydro-1H-pyrazol-3-yl)thieno[2,3-b]pyridin-6(7H)-one], under 50%.
With `CCC(=O)N1N=C(c2c(C)c3ccsc3[nH]c2=O)CC1c1ccc(C(C)C)cc1` (stereo not shown) [Example 49, 5-(5-(4-isopropylphenyl)-1-propionyl-4,5-dihydro-1H-pyrazol-3-yl)-4-methylthieno[2,3-b]pyridin-6(7H)-one] the figure was under 50%; with `CCC(=O)N1N=C(c2c(C)c3ccsc3[nH]c2=O)CC1c1cnc(C)cc1C` (stereo not shown) [Example 50, 5-(5-(4,6-dimethylpyridin-3-yl)-1-propionyl-4,5-dihydro-1H-pyrazol-3-yl)-4-methylthieno[2,3-b]pyridin-6(7H)-one], under 50%.
As for `CCC(=O)N1N=C(c2c(C)c3ccsc3[nH]c2=O)CC1c1cnc(C)nc1` (stereo not shown) [Example 51, 4-methyl-5-(5-(2-methylpyrimidin-5-yl)-1-propionyl-4,5-dihydro-1H-pyrazol-3-yl)thieno[2,3-b]pyridin-6(7H)-one], the inhibition at 10 µM is under 50%.
For the compound `CCC(=O)N1N=C(c2c(C)c3ccsc3[nH]c2=O)CC1c1cnc(C)c(Cl)c1` (stereo not shown) [Example 52, 5-(5-(5-chloro-6-methylpyridin-3-yl)-1-propionyl-4,5-dihydro-1H-pyrazol-3-yl)-4-methylthieno[2,3-b]pyridin-6(7H)-one], the inhibition at 10 µM is at least 50%.
`CCC(=O)N1N=C(c2c(C)c3ccsc3[nH]c2=O)CC1c1cnc(C)cc1OC` (stereo not shown) [Example 53, 5-(5-(4-methoxy-6-methylpyridin-3-yl)-1-propionyl-4,5-dihydro-1H-pyrazol-3-yl)-4-methylthieno[2,3-b]pyridin-6(7H)-one] had an inhibition at 10 µM of under 50%.
The compound `CCC(=O)N1N=C(c2c(C)c3ccsc3[nH]c2=O)CC1c1cnc(C)c(C)c1` (stereo not shown) [Example 54, 5-(5-(5,6-dimethylpyridin-3-yl)-1-propionyl-4,5-dihydro-1H-pyrazol-3-yl)-4-methylthieno[2,3-b]pyridin-6(7H)-one] returned an inhibition at 10 µM of at least 50%.
In turn, `CCC(=O)N1N=C(c2c(C)c3ccsc3[nH]c2=O)CC1c1cnc(C)c(F)c1` (stereo not shown) [Example 55, 5-(5-(5-fluoro-6-methylpyridin-3-yl)-1-propionyl-4,5-dihydro-1H-pyrazol-3-yl)-4-methylthieno[2,3-b]pyridin-6(7H)-one] yielded an inhibition at 10 µM of at least 50%.
For `CCC(=O)N1N=C(c2c(C)c3ccsc3[nH]c2=O)CC1c1cnc(C)cc1Cl` (stereo not shown) [Example 56, 5-(5-(4-chloro-6-methylpyridin-3-yl)-1-propionyl-4,5-dihydro-1H-pyrazol-3-yl)-4-methylthieno[2,3-b]pyridin-6(7H)-one], the inhibition at 10 µM was at least 50%.
With `CCC(=O)N1N=C(c2c(C)c3ccsc3[nH]c2=O)CC1c1cnc(C)s1` (stereo not shown) [Example 57, 4-methyl-5-(5-(2-methylthiazol-5-yl)-1-propionyl-4,5-dihydro-1H-pyrazol-3-yl)thieno[2,3-b]pyridin-6(7H)-one] the figure was at least 50%.
As to `CCC(=O)N1N=C(c2c(C)c3ccsc3[nH]c2=O)CC1C1CCCCC1` (stereo not shown) [Example 58, 5-(5-cyclohexyl-1-propionyl-4,5-dihydro-1H-pyrazol-3-yl)-4-methylthieno[2,3-b]pyridin-6(7H)-one], the inhibition at 10 µM was under 50%.
With `CCC(=O)N1N=C(c2c(C)c3cc(Cl)ccc3[nH]c2=O)CC1c1ccc(C)cc1` (stereo not shown) [Example 59, 6-chloro-4-methyl-3-(1-propionyl-5-(p-tolyl)-4,5-dihydro-1H-pyrazol-3-yl)quinolin-2(1H)-one] the figure was at least 50%.
In the case of `CCC(=O)N1N=C(c2c(C)c3nc(Cl)ccc3[nH]c2=O)CC1c1ccc(C)cc1` (stereo not shown) [Example 61, 6-chloro-4-methyl-3-(1-propionyl-5-(p-tolyl)-4,5-dihydro-1H-pyrazol-3-yl)-1,5-naphthyridin-2(1H)-one] it was at least 50%; in that of `CC(=O)N1N=C(c2c(C)c3ccsc3[nH]c2=O)CC1c1ccc(C)cc1` (stereo not shown) [Example 62, 5-(1-acetyl-5-(p-tolyl)-4,5-dihydro-1H-pyrazol-3-yl)-4-methyl-7,7a-dihydrothieno[2,3-b]pyridin-6(7H)-one], at least 50%; in that of `Cc1ccc(C2CC(c3c(C)c4ccsc4[nH]c3=O)=NN2C(=O)C(C)C)cc1` (stereo not shown) [Example 63, 5-(1-isobutyryl-5-(p-tolyl)-4,5-dihydro-1H-pyrazol-3-yl)-4-methyl-7,7a-dihydrothieno[2,3-b]pyridin-6(7H)-one], at least 50%.
With `Cc1ccc(C2CC(c3c(C)c4ccsc4[nH]c3=O)=NN2C(=O)C(F)(F)F)cc1` (stereo not shown) [Example 64, 4-methyl-5-(5-(p-tolyl)-1-(2,2,2-trifluoroacetyl)-4,5-dihydro-1H-pyrazol-3-yl)-7,7a-dihydrothieno[2,3-b]pyridin-6(7H)-one] the figure was at least 50%; with `CCC(=O)N1N=C(c2c(C)c3ccsc3[nH]c2=O)CC1c1ccc(C)cc1Cl` (stereo not shown) [Example 65, 5-(5-(2-chloro-4-methylphenyl)-1-propionyl-4,5-dihydro-1H-pyrazol-3-yl)-4-methylthieno[2,3-b]pyridin-6(7H)-one], at least 50%.
With `CCC(=O)N1N=C(c2c(C)c3cc(Cl)cnc3[nH]c2=O)CC1c1ccc(C)cc1` (stereo not shown) [Example 67, 6-chloro-4-methyl-3-(1-propionyl-5-(p-tolyl)-4,5-dihydro-1H-pyrazol-3-yl)-1,8-naphthyridin-2(1H)-one], the inhibition at 10 µM was under 50%.
For the compound `CCC(=O)N1N=C(c2c(C)c3ccsc3[nH]c2=O)CC1c1ccc(CF)cc1` (stereo not shown) [Example 68, 5-(5-(4-(fluoromethyl)phenyl)-1-propionyl-4,5-dihydro-1H-pyrazol-3-yl)-4-methylthieno[2,3-b]pyridin-6(7H)-one], the inhibition at 10 µM was at least 50%.
On to `CCC(=O)N1N=C(c2c(C)c3ncccc3[nH]c2=O)CC1c1ccc(C)cc1` (stereo not shown) [Example 69, 4-methyl-3-(1-propionyl-5-(p-tolyl)-4,5-dihydro-1H-pyrazol-3-yl)-1,5-naphthyridin-2(1H)-one], for which the inhibition at 10 µM is at least 50%.
With `CCC(=O)N1N=C(c2c(C)c3ccsc3[nH]c2=O)CC1Cc1ccccc1` (stereo not shown) [Example 71, 5-(5-benzyl-1-propionyl-4,5-dihydro-1H-pyrazol-3-yl)-4-methylthieno[2,3-b]pyridin-6(7H)-one], the inhibition at 10 µM is at least 50%.
In turn, `CCC(=O)N1N=C(c2c(C)c3cc(Cl)sc3[nH]c2=O)CC1c1ccc(C)cc1` (stereo not shown) [Example 72, 2-chloro-4-methyl-5-(1-propionyl-5-(p-tolyl)-4,5-dihydro-1H-pyrazol-3-yl)thieno[2,3-b]pyridin-6(7H)-one] showed an inhibition at 10 µM of at least 50%.
In turn, `CCC(=O)N1N=C(c2c(C)c3cccnc3[nH]c2=O)CC1c1ccc(C)cc1` (stereo not shown) [Example 73, 4-methyl-3-(1-propionyl-5-(p-tolyl)-4,5-dihydro-1H-pyrazol-3-yl)-1,8-naphthyridin-2(1H)-one] returned an inhibition at 10 µM of at least 50%.
`CCC(=O)N1N=C(c2c(C)c3ccc(C)cc3[nH]c2=O)CC1c1ccc(C)cc1` (stereo not shown) [Example 75, 4,7-dimethyl-3-(1-propionyl-5-(p-tolyl)-4,5-dihydro-1H-pyrazol-3-yl)quinolin-2(1H)-one] came in with an inhibition at 10 µM of at least 50%.
In turn, `CCC(=O)N1N=C(c2c(C)c3c(C)cccc3[nH]c2=O)CC1c1ccc(C)cc1` (stereo not shown) [Example 76, 4,5-dimethyl-3-(1-propionyl-5-(p-tolyl)-4,5-dihydro-1H-pyrazol-3-yl)quinolin-2(1H)-one] had an inhibition at 10 µM of at least 50%.
